From the supplement of paper PMC13207355

How the values were obtained:
Details in all cases: exposure time: 72 h
E21 [1] = patient-derived glioblastoma stem cells of mesenchymal subtype; experiment: phenotypic distance (Euclidean, principal components) from DMSO controls (arbitrary units); higher = stronger morphological change
E28 [2] = patient-derived glioblastoma stem cells of classical subtype; experiment: as above
E34 [3] = patient-derived glioblastoma stem cells of proneural subtype; experiment: as above
FT3469 [4] = normal neural stem cell line; experiment: as above
E13 [5] = patient-derived glioblastoma stem cells of classical subtype; experiment: as above
E57 [6] = patient-derived glioblastoma stem cells of mesenchymal subtype; experiment: as above
E21 [7] = experiment: surviving fraction (nuclei count normalised to DMSO); higher = more cells surviving (less toxic)
E28 [8] = experiment: as above
E34 [9] = experiment: as above
FT3469 [10] = experiment: as above
E13 [11] = experiment: as above
E57 [12] = experiment: as above
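Throughout, for phenotypic distance (Euclidean, principal components) from DMSO controls: cell Painting imaging in 384-well plates, CellProfiler features reduced to at least 20 principal components, Euclidean distance versus same-plate DMSO vehicle wells (0.1% v/v), median over six images per well.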
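Throughout, for surviving fraction (nuclei count normalised to DMSO): nuclei counted by high-content imaging of Hoechst-stained cells in laminin-coated 384-well plates, relative to 0.1% DMSO vehicle wells, with staurosporine as cell-death control.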

CN1C(=O)[C@@]23C[C@]4([C@]56C[C@@]78SS[C@@](CO)(C(=O)N7[C@H]5Nc5ccccc56)N(C)C8=O)c5ccccc5N[C@@H]4N2C(=O)[C@]1(CO)SS3 [Chaetocin]
Details	phenotypic distance	surviving fraction
E13 [5], 4.1 nM	2.76	–
E13 [5], 12.3 nM	3.18	–
E13 [5], 37 nM	5.87	–
E13 [5], 111.1 nM	7.1	–
E13 [5], 333.3 nM	10.5	–
E13 [5], 1000 nM	9.83	–
E13 [5], 3000 nM	10.7	–
E13 [11], 4.1 nM	–	0.552
E13 [11], 12.3 nM	–	0.4
E13 [11], 37 nM	–	0.0566
E13 [11], 111.1 nM	–	0.0323
E13 [11], 333.3 nM	–	0.00998
E13 [11], 1000 nM	–	0.0119
E13 [11], 3000 nM	–	0.0124
E21 [1], 4.1 nM	4.37	–
E21 [1], 12.3 nM	4.95	–
E21 [1], 37 nM	7.07	–
E21 [1], 111.1 nM	10.1	–
E21 [1], 333.3 nM	12.7	–
E21 [1], 1000 nM	11.4	–
E21 [1], 3000 nM	14.2	–
E21 [7], 4.1 nM	–	0.253
E21 [7], 12.3 nM	–	0.0911
E21 [7], 37 nM	–	0.0242
E21 [7], 111.1 nM	–	0.00808
E21 [7], 333.3 nM	–	0.00862
E21 [7], 1000 nM	–	0.0113
E21 [7], 3000 nM	–	0.00808
E28 [2], 4.1 nM	1.98	–
E28 [2], 12.3 nM	2.51	–
E28 [2], 37 nM	3.933	–
E28 [2], 111.1 nM	5.55	–
E28 [2], 333.3 nM	10.4	–
E28 [2], 1000 nM	9.23	–
E28 [2], 3000 nM	9.7	–
E28 [8], 4.1 nM	–	0.328
E28 [8], 12.3 nM	–	0.281
E28 [8], 37 nM	–	0.1561
E28 [8], 111.1 nM	–	0.111
E28 [8], 333.3 nM	–	0.00802
E28 [8], 1000 nM	–	0.00283
E28 [8], 3000 nM	–	0.00707
E34 [3], 4.1 nM	2.24	–
E34 [3], 12.3 nM	3.35	–
E34 [3], 37 nM	6.13	–
E34 [3], 111.1 nM	7.1327	–
E34 [3], 333.3 nM	10.8	–
E34 [3], 1000 nM	13	–
E34 [3], 3000 nM	11.9	–
E34 [9], 4.1 nM	–	0.41
E34 [9], 12.3 nM	–	0.345
E34 [9], 37 nM	–	0.149
E34 [9], 111.1 nM	–	0.0449
E34 [9], 333.3 nM	–	0.0206
E34 [9], 1000 nM	–	0.0187
E34 [9], 3000 nM	–	0.0159
E57 [6], 4.1 nM	2.84	–
E57 [6], 12.3 nM	3.23	–
E57 [6], 37 nM	4.87	–
E57 [6], 111.1 nM	5.13	–
E57 [6], 333.3 nM	8.15	–
E57 [6], 1000 nM	9.97	–
E57 [6], 3000 nM	10.7	–
E57 [12], 4.1 nM	–	0.765
E57 [12], 12.3 nM	–	0.402
E57 [12], 37 nM	–	0.056
E57 [12], 111.1 nM	–	0.0464
E57 [12], 333.3 nM	–	0.00359
E57 [12], 1000 nM	–	0.00745
E57 [12], 3000 nM	–	0.00248
FT3469 [4], 4.1 nM	3.69	–
FT3469 [4], 12.3 nM	3.49	–
FT3469 [4], 37 nM	4.19	–
FT3469 [4], 111.1 nM	5.8	–
FT3469 [4], 333.3 nM	10.7	–
FT3469 [4], 1000 nM	10.1	–
FT3469 [4], 3000 nM	9.44	–
FT3469 [10], 4.1 nM	–	0.518
FT3469 [10], 12.3 nM	–	0.481
FT3469 [10], 37 nM	–	0.364
FT3469 [10], 111.1 nM	–	0.194
FT3469 [10], 333.3 nM	–	0.00806
FT3469 [10], 1000 nM	–	0.0296
FT3469 [10], 3000 nM	–	0.0116

CCn1cc(-c2ccnc3[nH]c(-c4cccc(CN(C)C)c4)cc23)c(-c2ccc(NC(=O)N(C)C)cc2)n1
Details	phenotypic distance	surviving fraction
E13 [5], 4.1 nM	4.52	–
E13 [5], 12.3 nM	4.8	–
E13 [5], 37 nM	4.56	–
E13 [5], 111.1 nM	5.0354	–
E13 [5], 333.3 nM	4.64	–
E13 [5], 1000 nM	4.84	–
E13 [5], 3000 nM	3.74	–
E13 [11], 4.1 nM	–	0.468
E13 [11], 12.3 nM	–	0.437
E13 [11], 37 nM	–	0.458
E13 [11], 111.1 nM	–	0.46
E13 [11], 333.3 nM	–	0.49
E13 [11], 1000 nM	–	0.456
E13 [11], 3000 nM	–	0.439
E21 [1], 4.1 nM	4.9	–
E21 [1], 12.3 nM	5.1	–
E21 [1], 37 nM	5.06	–
E21 [1], 111.1 nM	5.32	–
E21 [1], 333.3 nM	5.21	–
E21 [1], 1000 nM	4.91	–
E21 [1], 3000 nM	5.07	–
E21 [7], 4.1 nM	–	0.418
E21 [7], 12.3 nM	–	0.428
E21 [7], 37 nM	–	0.442
E21 [7], 111.1 nM	–	0.449
E21 [7], 333.3 nM	–	0.359
E21 [7], 1000 nM	–	0.4316
E21 [7], 3000 nM	–	0.314
E28 [2], 4.1 nM	2.81	–
E28 [2], 12.3 nM	2.81	–
E28 [2], 37 nM	2.55	–
E28 [2], 111.1 nM	2.69	–
E28 [2], 333.3 nM	2.57	–
E28 [2], 1000 nM	2.83	–
E28 [2], 3000 nM	2.95	–
E28 [8], 4.1 nM	–	0.639
E28 [8], 12.3 nM	–	0.603
E28 [8], 37 nM	–	0.542
E28 [8], 111.1 nM	–	0.5559
E28 [8], 333.3 nM	–	0.549
E28 [8], 1000 nM	–	0.53
E28 [8], 3000 nM	–	0.397
E34 [3], 4.1 nM	2.75	–
E34 [3], 12.3 nM	2.68	–
E34 [3], 37 nM	2.46	–
E34 [3], 111.1 nM	2.4	–
E34 [3], 333.3 nM	2.43	–
E34 [3], 1000 nM	2.62	–
E34 [3], 3000 nM	1.93	–
E34 [9], 4.1 nM	–	0.664
E34 [9], 12.3 nM	–	0.622
E34 [9], 37 nM	–	0.787
E34 [9], 111.1 nM	–	0.815
E34 [9], 333.3 nM	–	0.842
E34 [9], 1000 nM	–	0.8037
E34 [9], 3000 nM	–	0.673
E57 [6], 4.1 nM	4.79	–
E57 [6], 12.3 nM	4.9	–
E57 [6], 37 nM	6.03	–
E57 [6], 111.1 nM	5.9	–
E57 [6], 333.3 nM	6.027	–
E57 [6], 1000 nM	5.9	–
E57 [6], 3000 nM	5.4	–
E57 [12], 4.1 nM	–	0.385
E57 [12], 12.3 nM	–	0.338
E57 [12], 37 nM	–	0.287
E57 [12], 111.1 nM	–	0.325
E57 [12], 333.3 nM	–	0.306
E57 [12], 1000 nM	–	0.314
E57 [12], 3000 nM	–	0.221
FT3469 [4], 4.1 nM	1.96	–
FT3469 [4], 12.3 nM	2.32	–
FT3469 [4], 37 nM	2	–
FT3469 [4], 111.1 nM	2.07	–
FT3469 [4], 333.3 nM	2.13	–
FT3469 [4], 1000 nM	2.98	–
FT3469 [4], 3000 nM	2.08	–
FT3469 [10], 4.1 nM	–	0.759
FT3469 [10], 12.3 nM	–	0.76
FT3469 [10], 37 nM	–	0.788
FT3469 [10], 111.1 nM	–	0.844
FT3469 [10], 333.3 nM	–	0.708
FT3469 [10], 1000 nM	–	0.729
FT3469 [10], 3000 nM	–	0.591
